Experimental data published in patent US20070093484A1, “3-Substituted 5,6-diaryl-pyrazine-2-carboxamide and -2-sulfonamide derivatives as cb1 modulators” (ASTRAZENECA AB, priority 2003, published 2007).
pIC50: −log10 of the molar value.

Biological target: T1, CB1 receptor (Homo sapiens, UniProt P21554)
T1 construct: expressed in transfected cells
Experiment: [35S]-GTPγS binding assay, inhibition of CP55940-stimulated activity in membranes from CB1-transfected cells
Format: biochemical
Conditions: membranes from cells stably transfected with the CB1 gene; EC80 concentration of agonist CP55940; 30° C., 45 min; read-out: IC50 (concentration required to give half maximal inhibition of GTPγS binding)
Description: Compounds of the present invention are active against the receptor product of the CB1 gene. The compounds of the present invention are active at the CB 1 receptor (IC50<1 micromolar). Most preferred compounds have IC50<200 nanomolar. The affinity of the compounds of the invention for central cannabinoid receptors is demonstrable in methods described in Devane et al, Molecular Pharmacology, 1988, 34,605 or those described in WO 01/70700 or EP 656354. Alternatively the assay may be performed as follows.
10 μg of membranes prepared from cells stably transfected with the CB1 gene were suspended in 200 μl of 100 mM NaCl, 5 mM MgCl2, 1 mM EDTA, 50 mM HEPES (pH 7.4), 1 mM DTT, 0.1% BSA and 100 μM GDP. To this was added an EC80 concentration of agonist CP55940), the required concentration of test compound and 0.1 μCi [^35S]-GTPγS. The reaction was allowed to proceed at 30° C. for 45 nun. Samples were then transferred on to GF/B filters using a cell harvester and washed with wash buffer (50 mM Tris (pH 7.4), 5 mM MgCl2, 50 mM NaCl). Filters were then covered with scintilant and counted for the amount of [35]-GTPγS retained by the filter.
Activity is measured in the absence of all ligands (minimum activity) or in the presence of an EC80 concentration of CP55940 (maximum activity). These activities are set as 0% and 100% activity respectively. At various concentrations of novel ligand, activity is calculated as a percentage of the maximum activity and plotted. The data are fitted using the equation y=A+((B−A)/1+((C/x)UD)) and the IC50 value determined as the concentration required to give half maximal inhibition of GTPγS binding under the conditions used.

T1 sequence (P21554 whole entry): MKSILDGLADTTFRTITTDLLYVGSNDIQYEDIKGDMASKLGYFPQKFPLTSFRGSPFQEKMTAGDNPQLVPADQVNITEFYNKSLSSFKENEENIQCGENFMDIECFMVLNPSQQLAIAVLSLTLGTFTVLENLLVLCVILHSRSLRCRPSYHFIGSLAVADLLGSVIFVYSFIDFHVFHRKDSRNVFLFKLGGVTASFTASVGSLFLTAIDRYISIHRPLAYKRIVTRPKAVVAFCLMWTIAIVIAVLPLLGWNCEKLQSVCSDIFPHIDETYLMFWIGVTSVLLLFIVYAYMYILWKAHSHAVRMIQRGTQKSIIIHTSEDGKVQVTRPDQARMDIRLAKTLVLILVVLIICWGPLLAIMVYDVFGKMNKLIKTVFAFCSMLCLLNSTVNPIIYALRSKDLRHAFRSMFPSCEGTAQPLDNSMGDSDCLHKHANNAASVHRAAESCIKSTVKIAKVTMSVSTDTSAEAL

Row | pIC50 | Compound
1 | 8.74 | CC(C)(C)NNC(=O)c1nc(-c2ccc(Cl)cc2)c(-c2ccc(Cl)cc2)nc1C(=O)OC(C)(C)C [Example 9]
2 | 7.87 | O=C(NN1CCCCC1)c1nc(-c2ccc(Cl)cc2)c(-c2ccc(Cl)cc2)nc1CN1CCOCC1 [Example 27, 5,6-bis(4-chlorophenyl)-3-(morpholin-4-ylmethyl)-N-piperidin-1-ylpyrazine-2-carboxamide]
3 | 8.85 | Cc1ccc(-c2nc(Cn3cnnn3)c(C(=O)NN3CCCCC3)nc2-c2ccc(C)cc2)cc1 [Example 35, 5,6-Bis(4-methylphenyl)-N-piperidin-1-yl-3-(1H-tetrazol-1-ylmethyl)pyrazine-2-carboxamide]
